Test results taken from patent EP2924040A1, “2-Amino-1-(o-tolyl)pyrrolo[3,2-b]quinoxaline-3-carboxamide derivates” (Universität Zürich, priority 2014, dated 2015).

System: A498
Assay: Cell culture and GI50 determination (resazurin)
Assay type: cell-based
Conditions: Homo sapiens, A498, 48h incubation
Description: MDA-MB-231 (breast cancer) and KM12 (colon cancer) cells obtained from the UZH Cancer Institute, HOP-92 (lung cancer) cells purchased from the National Cancer Institute (NCl) and A498 (kidney cancer) cells obtained from Prof. Krek (Institute of Cell Biology, ETH Zurich) were cultured in Dulbecco's modified Eagle's medium (DMEM) supplemented with 10% (v/v) fetal bovine serum. K562 leukemia cells obtained from Dr. Silvio Hemmi (Institute of Molecular Life Sciences, UZH) were cultured using RPMI medium supplemented with 5% (v/v) fetal bovine serum. All the media was additionally supplemented with 100 units/mL of penicillin, 100µg/mL of streptomycin, 4.5 g/L glucose, 0.11g/L sodium pyrubate and 2mM glutamine and the cells were grown at 37 °C in 5% CO2 atmosphere with 80% relative humidity.
MDA-MB-231, HT-29, KM12, HOP-92 and A498 cells were plated at 10,000 cells per well (100 µL per well) in 96-well culture dishes and allowed to incubate for 24 h. The old media was removed, the cells were washed with PBS (phosphate-buffered saline) and fresh media was added. A 5 mmol/L solution of inhibitor (in 100% DMSO) was serially diluted in the culture media (12 different concentrations were used) and allowed to incubate for 72 h (MDA-MB-231) or 48h (A498). Control cells were treated with the same DMSO concentrations. After the incubation period the media was once more removed and the cells were washed with PBS to then be incubated with fresh media containing 86 nmol/L resazurin. After 3 hours, the fluorescence was quantified using a fluorescence microplate reader (Biotek, FLx800™) at the respective excitation and emission wavelength of 560 and 590 nm. Resazurin becomes fluorescent under mitochondrial reduction and its emission directly correlates with the metabolic stability of the cells. The measured fluorescence values were corrected from the control samples containing DMSO and GI50 values were determined by plotting the fraction of metabolically active cells against the log of the drug concentration. All measurements were performed at least in triplicate.

For `COc1ccc(C)c(-n2c(N)c(C(N)=O)c3nc4ccccc4nc32)c1` [Compound 8, 2-Amino-1-(5-methoxy-2-methylphenyl)-1H-pyrrolo[2,3-b]quinoxaline-3-carboxamide, reference compound], the GI50 was 59.3 µM.
